Measured values as given in patent publication US6093836A, “1,3-diphenylpropane derivatives having inhibitory activity against tyrosinase and process for preparation thereof” (priority 1997, dated 2000).
≈ marks a conversion by molar mass, not a printed value. Like-named read-outs stand apart in the source and are kept apart here.

How the values were obtained:
tyrosinase = assay: Inhibitory activity against tyrosinase (mushroom enzyme, L-tyrosine substrate, absorbance at 475 nm); format: biochemical, mushrooms; details: pH 6.8, 37° C., 10 minutes
Protocol: That is, a sample is introduced into a microplate, to which are added a phosphate buffer solution(pH 6.8) and a L-tyrosine solution.
Inhibitory Activity Against Tyrosinase
Enzyme tyrosinase extracted from mushrooms(manufactured by Sigma) was used in the present experiment. First, a substrate L-tyrosine was dissolved in phosphate buffer solution(0.05M, pH 6.8) to a concentration of 1.5 mM and then 0.01 ml of this solution was introduced to a 0.3 ml cuvette in a spectrophotometry. Dopa as a cofacter was prepared as a solution in a concentration of 0.06 mM and 0.01 ml of this dopa solution was added to the substrate solution. To the resulting mixture were added the inhibitor of formula (I) and phosphate buffer solution to a total volume of 0.31 ml. The reaction was started by adding 0.1 ml of an enzyme solution in which tyrosinase was dissolved in phosphate buffer solution in a concentration of 60 U/ml. 0.1 ml of phosphate buffer solution instead of the enzyme solution was added to the blank sample. The reaction was carried out for 10 minutes at 37° C. and then absorbance at 475 nm was measured using Spectrophotometer (Beckman DU-7500).
[formula] in the above formula A represents absorbance at 475 nm when the inhibitor is added, and
B represents absorbance at 475 nm when the inhibitor is not added.

[1] = system: B-16 mouse melanoma cells; assay: Inhibitory effect against melanin biosynthesis in B-16 mouse melanoma cell; format: cell-based; details: 72 h, read-out: IC50 (inhibition of melanin biosynthesis)
Protocol: Inhibitory Effect Against Melanin Biosynthesis in B-16 Mouse Melanoma Cell
B-16 mouse melanoma cells were cultured to a density of 10^6 cells/dish in culture media compounds in various concentrations were respectively added thereto and then cultured for 3 days. The cells were separated from the culture dish by the treatment with trypsin and then centrifuged to extract melanin(wherein a pellet was extracted using 2N perchloric acid). 1 ml of 1N aqueous sodium hydroxide solution was added to the melanin extracted and the resulting mixture was heated to dissolve melanrin. The absorbance at 400 nm was measured by a spectrophotometer and the amount of the melanin produced was represented by the absorbance per unit cell numbers(10^6 cell).

[2] = literature, J. Soc. Cosmet. Chem., 42, 361, 1991; cited from earlier work
[3] = background; cited from earlier work
[4] = B-16 mouse melanoma cells, 3 days, absorbance at 400 nm

| Structure (SMILES) | IC50 (inhibitory activity against tyrosinase) (tyrosinase) | IC50 [1, 4] | IC50 ([1]; Mus musculus) | side effects [2] | whitening effect [3] |
| --- | --- | --- | --- | --- | --- |
| Cc1c(C)c2c(c(CCCc3ccc(O)cc3O)c1O)CCC(C)(C)O2 [Compound 9, 4-[3-(6-hydroxy-2,2,7,8-tetramethyl-chroman-5-yl)-propyl]-benzene-1,3-diol] | 0.3 µg/mL (≈ 0.842 µM) | 3 µg/mL (≈ 8.42 µM) | – | – | – |
| Cc1c(C)c(O)c(C(O)CCc2ccc(O)cc2O)c(C)c1O (centres unmarked) [Compound 1, 4-[3-hydroxy-3-(2,5-dihydroxy-3,4,6-trimethyl-phenyl)-propyl]-benzene-1,3-diol] | 0.5 µg/mL (≈ 1.57 µM) | 10 µg/mL (≈ 31.4 µM) | – | – | – |
| O=c1cc(CO)occ1O [Kojic acid, reference compound] | – | – | 15 µg/mL (≈ 106 µM) | – | – |
| Oc1ccc(O)cc1 [Hydroquinone, reference compound] | 0.5 µg/mL (≈ 4.54 µM) | – | – | degeneration or lethal mutation of melanin, damage of the cellular function | – |
| OC[C@H]1O[C@@H](Oc2ccc(O)cc2)[C@H](O)[C@@H](O)[C@@H]1O [Arbutin, reference compound] | – | 300 µg/mL (≈ 1100 µM) | – | – | little whitening effect |
| Cc1c(C)c2c(c(C(O)CCc3ccc(O)cc3O)c1O)CCC(C)(C)O2 (centres unmarked) [Compound 8, 4-[3-hydroxy-3-(6-hydroxy-2,2,7,8-tetramethyl-chroman-5-yl)-propyl]-benzene-1,3-diol] | 0.3 µg/mL (≈ 0.805 µM) | 2 µg/mL (≈ 5.37 µM) | – | – | – |

More lines, main results first:

| IC50 (inhibitory activity against tyrosinase) (tyrosinase) | IC50 [1, 4] | Structure (SMILES) | IC50 ([1]; Mus musculus) | side effects [2] | whitening effect [3] |
| --- | --- | --- | --- | --- | --- |
| 1.0 µg/mL (≈ 2.89 µM) | 20 µg/mL (≈ 57.7 µM) | CCOc1c(C)c(C)c(O)c(C(O)CCc2ccc(O)cc2O)c1C (centres unmarked) [Compound 7] | – | – | – |
| 1 µg/mL (≈ 3.31 µM) | 5 µg/mL (≈ 16.5 µM) | Cc1c(C)c(O)c(CCCc2ccc(O)cc2O)c(C)c1O [Compound 2, 4-13-(2,5-dihydroxy-3,4,6-trimethyl-phenyl)-propyll-benzene-1,3-diol] | – | – | – |
| 0.1 µg/mL (≈ 0.301 µM) | 5 µg/mL (≈ 15 µM) | COc1c(C)c(C)c(O)c(C(O)CCc2ccc(O)cc2O)c1C (centres unmarked) [Compound 5, 4-[3-hydroxy-3-(2-hydroxy-5-methoxy-3,4,6-trimethyl-phenyl)-propyl]-benzene-1,3-diol] | – | – | – |
| 0.1 µg/mL (≈ 0.316 µM) | 10 µg/mL (≈ 31.6 µM) | COc1c(C)c(C)c(O)c(CCCc2ccc(O)cc2O)c1C [Compound 6, 4-[3-(2-hydroxy-5-methoxy-3,4,6-trimethyl-phenyl)-propyl]-benzene-1,3-diol] | – | – | – |
| 50 µg/mL (≈ 150 µM) | 40 µg/mL (≈ 120 µM) | COc1c(C)c(C)c(O)c(C)c1C(O)CCc1ccc(O)cc1O (centres unmarked) [Compound 3, 4-[3-hydroxy-3-(5-hydroxy-2-methoxy-3,4,6-trimethyl-phenyl)-propyl]-benzene-1,3-diol] | – | – | – |
| 20 µg/mL (≈ 63.2 µM) | 45 µg/mL (≈ 142 µM) | COc1c(C)c(C)c(O)c(C)c1CCCc1ccc(O)cc1O [Compound 4] | – | – | – |
